Key:
Format in all cases: in vivo
[1] = system: uterine bleeding; experiment: Case: person with Acute Lymphotic Leukemia, thrombocytopenia and uterine bleeding, oral treatment
Procedure: A post-pubertal person is consulting for fever, infections, uterine bleeding, petechia and dyspnea. Blood test identifies anemia (Hb 7.8 g/dL), normal leucocyte count (WBC 8657 cells/μL) and thrombocytopenia (platelets: 13.476 cells/mm^3). […] A diagnosis of Acute Lymphotic Leukemia is confirmed. The patient undergoes blood and platelet transfusion to correct for anemia and coagulation disorder. On the same day, they start taking orally 10 mg/day of CDB-2914. […] On that day, Hb is 9.9 g/dL; WBC 6345 cells/μL; and platelet count is 42 000 cells/mm^3. They continue taking orally 10 mg/day of CDB2914 for controlling abnormal uterine bleeding. […] After 3 months, they achieve remission, Hb is 13.1 g/dL; leucocyte count is normal, platelet count is 176 000 cells/mm^3. Bone marrow biopsy confirmed normalization.

[2] = system: uterine bleeding; experiment: Case: person with stage III Hodgkin disease, prevention of uterine bleeding during chemotherapy and irradiation; conditions: 10 mg/day orally, started before chemotherapy (MOPP) and irradiation
Text: A person is consulting for pneumonia. They report a recent history of night sweats and weight loss. […] The diagnosis is a stage III of Hodgkin disease. Their condition indicates chemotherapy (MOPP) and extended irradiation. The main risk of the proposed therapy is bone marrow suppression. This is life-threatening by exposing the patient to severe infection and septicemia, but it is also associated with severe thrombopenia and diffuse bleeding including uterine bleeding. In order to prevent uterine bleeding, before initiating specific treatment for their Hodgkin disease, they are orally administered 10 mg/day of CDB-2914. Following initiation of chemotherapy and irradiation, severe bone marrow suppression is recorded and the patient is admitted in aseptic unit. […] CBD2914 administration is maintained as long as coagulation parameters are not normalized.

[3] = system: uterine bleeding; experiment: Case: person on anticoagulant therapy with menorrhagia, oral treatment
Procedure: A moderate smoker with a BMI at 32 is treated with anticoagulant therapy for an episode of pulmonary embolism resulting from a deep venous thrombosis in a leg. Despite effort to adapt their anticoagulation therapy, their menstruations are heavy (menorrhagia) and last for up to two weeks. Their Hb is at 9.2 gr/dL. […] Their thrombo-embolic condition precludes any therapy with oestrogens or progestins. Given, the absence of negative metabolic and pro-thrombotic effect of SPRM, they are orally administered 25 mg/day of Proellex® (CDB-4124). […] Their Hb progressively returned to normal (>12 gd/dL).

Compound: CC(=O)O[C@]1(C(C)=O)CC[C@H]2[C@@H]3CCC4=CC(=O)CCC4=C3[C@@H](c3ccc(N(C)C)cc3)C[C@@]21C [CDB-2914]
- uterine bleeding during continued treatment ([1]; 10 mg/day orally, 3 months, several episodes of thrombopenia and chemotherapy cycles, except for a few spotting): remains in amenorrhea
- time following initiation of treatment until uterine bleeding is stopped ([1]; 10 mg/day orally, blood and platelet transfusion on the same day): 5 days
- menstrual bleeding after treatment is stopped ([1]; after 3 months, remission): regular, normal menstrual bleeding are restored
- uterine bleeding despite severe thrombopenia [2]: remains in amenorrhea

Compound: COCC(=O)[C@@]1(OC(C)=O)CC[C@H]2[C@@H]3CCC4=CC(=O)CCC4=C3[C@@H](c3ccc(N(C)C)cc3)C[C@@]21C [Proellex, 17[alpha]-acetoxy-21-methoxy-11β-[4-N,N-dimethylaminophenyl]-19-norpregna-4,9-diene-3,20-dione]
- uterine bleeding after start of treatment ([3]; 25 mg/day orally): stopped after a few days
- uterine bleeding during the 12 weeks of anticoagulation therapy ([3]; 25 mg/day orally): remain amenorrheic
- Hb ([3]; 25 mg/day orally, 9.2 gr/dL before treatment, progressively returned to normal): > 12 gd/dL
- menstruations after treatment is stopped ([3]; after anticoagulation therapy is stopped): resumed normal menstruations

From patent US8569274B2, “Progesterone antagonist and selective progesterone modulator in the treatment of excessive uterine bleeding” (Preglem S.A., priority 2007, dated 2013)
